The record followed here is paper PMC11728142, “A Tachyplesin Antimicrobial Peptide from Theraphosidae Spiders with Potent Antifungal Activity Against Cryptococcus neoformans” (Microorganisms, 2024).

Converted amounts (≈) assume the structure as drawn. Residues, ends and D or L forms follow the SMILES beside them.

One data set concerns Candida auris_55. Briefly: microbe, parasite or virus in culture. As to the method: (§1) To achieve a final cell concentration of 2 × 10^6 CFU/mL, mid-log phase cultures were diluted with a Yeast and Mold (YM) broth and then put to 96-well plates with two-fold serially diluted peptides (from 0.1 to 89.8 µM) in a 1:1 ratio.
Data set [1] concerns Cryptococcus neoformans_ATCC32045. In words: microbe, parasite or virus in culture. As to the method: as §1
A further data set concerns Candida auris_84. In words: microbe, parasite or virus in culture. The protocol: as §1
Data set [2] concerns Cryptococcus neoformans_BNCC225501. In words: microbe, parasite or virus in culture. As to the method: as §1
Data set [3] has as its system Candida albicans_ATCC10231. Briefly: microbe, parasite or virus in culture. As to the method: as §1
The next data set has as its system chymotrypsin. Conditions: peptide 1 mg/mL, peptide:enzyme 250:1, 5 mM CaCl2, 50 mM Tris-HCl pH 7.4, 37 °C, time points 0 to 12 h, SDS-PAGE bands. As to the method: (§2) The mixture was heated for 10 min at 95 °C to halt enzymatic reaction. A solution of 20 µL of the SDS-PAGE loading buffer (5×) was added to 80 µL of the sample, mixed by vortexing and heated for 5 min at 95 °C. SDS-PAGE analysis was performed using Omni-PAGE™Precast HEPES-Tris Gels. LL37 and colistin antibiotics were used as controls.

The subject of the next data set is trypsin. Particulars: peptide 1 mg/mL, peptide:enzyme 250:1, 5 mM CaCl2, 50 mM Tris-HCl pH 7.4, 37 °C, time points 0 to 12 h, SDS-PAGE bands. As to the method: as §2
Where [4] appears, read: broth microdilution, YM broth, 2 × 10^6 CFU/mL, 24 h at 37 °C, lowest concentration that fully inhibited growth.

As for `C[C@@H]1[C@H](O)[C@@H](C)/C=C/C=C/C=C/C=C/C=C/C=C/C=C/[C@H](O[C@@H]2O[C@H](C)[C@@H](O)[C@H](N)[C@@H]2O)C[C@@H]2O[C@](O)(C[C@@H](O)C[C@@H](O)[C@H](O)CC[C@@H](O)C[C@@H](O)CC(=O)O[C@H]1C)C[C@H](O)[C@H]2C(=O)O` [Amphotericin B, amphotericin B, reference compound], the MIC against Candida auris_55 (Candida, 24 h) is 1.7 µM (≈ 1.57 µg/mL); in data set [1] (Cryptococcus, 24 h) it was 3.4 µM (≈ 3.14 µg/mL); in the data set with Candida auris_84 (Candida, 24 h), 0.8 µM (≈ 0.739 µg/mL); in data set [2] (Cryptococcus, 24 h), 1.7 µM (≈ 1.57 µg/mL); in data set [3] (Candida, 24 h), no more than 0.4 µM.
Consider `CC(C)[C@H](NC(=O)[C@H](CCCCN)NC(=O)[C@H](Cc1ccccc1)NC(=O)[C@H](CS)NC(=O)[C@@H](N)CCC(N)=O)C(=O)N[C@@H](CS)C(=O)N[C@@H](Cc1ccccc1)C(=O)N[C@@H](CCCNC(=N)N)C(=O)N[C@@H](CCCCN)C(=O)N[C@@H](CCCNC(=N)N)C(=O)N[C@@H](CS)C(=O)N[C@@H](Cc1ccccc1)C(=O)N[C@H](C(=O)N[C@@H](CCCCN)C(=O)N[C@@H](CS)C(=O)N[C@@H](CO)C(=O)N[C@@H](CCCNC(=N)N)C(=O)N[C@@H](CO)C(=O)O)[C@@H](C)O` [QS18red] (H-QCFKVCFRKRCFTKCSRS-OH), for which the “proteolytic stability with chymotrypsin” value in the data set with chymotrypsin is “faint initial band that disappeared after 15 min”. Also, in the data set with trypsin, the “proteolytic stability with trypsin” value is listed as “no bands observed even at t = 0 min”. The MIC with Candida auris_55 (setting [4]) was greater than 89.8 µM; in data set [1] (setting [4]), no less than 89.8 µM; with Candida auris_84 (setting [4]) it was 44.9 µM (≈ 100 µg/mL); in data set [2] (setting [4]) it was 89.8 µM (≈ 200 µg/mL); in data set [3] (setting [4]), greater than 89.8 µM.
